For series [1], the target named is Cyclin-dependent kinase 1/cyclin B (Homo sapiens, UniProt P06493). As to the kind of experiment: Inhibition of Cyclin B-cyclin-dependent kinase 1. It is filed as protein-complex assay.
In series [2] the test system is HCT-116. As to the kind of experiment: In vitro inhibitory concentration against cell proliferation in human HCT116 (colon carcinoma) tumor cells. It counts as functional, cell-based.
The subject of series [3] is MDA-MB-231. As to the kind of experiment: In vitro inhibitory concentration against cell proliferation in human MDA-MB-231 (breast carcinoma) tumor cells. It is filed as functional, cell-based.
Series [4] has as its system PC-3. As to the kind of experiment: In vitro inhibitory concentration against cell proliferation in human PC-3 (prostate adenocarcinoma) tumor cells. It counts as functional, cell-based.
Series [5] concerns HeLa. As to the kind of experiment: In vitro inhibitory concentration against cell proliferation in human HeLa (cervical adenocarcinoma) tumor cells. It is filed as functional, cell-based.
Series [6] concerns A-375. As to the kind of experiment: In vitro inhibitory concentration against cell proliferation in human A375 (malignant melanoma),tumor cells. It is filed as functional, cell-based.
The subject of series [7] is MDA-MB-231. As to the kind of experiment: In vitro inhibitory concentration against cell proliferation in various human MDA-MB-231 (breast carcinoma) tumor cells. It counts as functional, cell-based.
Series [8] has as its system SK-OV-3. As to the kind of experiment: In vitro inhibitory concentration against cell proliferation in human SK-OV-3 (ovarian adenocarcinoma) tumor cells. It is filed as functional, cell-based.
The target in series [9] is Casein kinase II (Homo sapiens, UniProt P19784+P67870+P68400). As to the kind of experiment: Inhibition of Casein kinase-2. It counts as protein-complex assay.
Series [10] in a line: Inhibition of Platelet-derived growth factor receptor beta.
The subject of series [11] is A-375. As to the kind of experiment: In vitro inhibitory concentration against cell proliferation in human A375 (malignant melanoma) tumor cells. It is filed as functional, cell-based.
Series [12] concerns the target Protein kinase C beta type (Homo sapiens, UniProt P05771). As to the kind of experiment: Inhibition of Protein kinase C- beta 2.
The target in series [13] is Glycogen synthase kinase-3 (Homo sapiens, UniProt P49840+P49841). As to the kind of experiment: Inhibition of Glycogen synthase kinase-3. It is filed as protein assay.
Series [14] deals with Cyclin-dependent kinase 2/cyclin A (Homo sapiens, UniProt P24941). As to the kind of experiment: Inhibition of Cyclin-dependent kinase 2-cyclin A. It counts as protein-complex assay.
For series [15], the target named is Fibroblast growth factor receptor 2 (Homo sapiens, UniProt P21802). As to the kind of experiment: Inhibition of Fibroblast growth factor receptor 2.
Series [16] has as its target Cyclin-dependent kinase 4/cyclin D1 (Homo sapiens, UniProt P11802). As to the kind of experiment: Inhibition of Cyclin-dependent kinase 4-cyclin D1. It is filed as protein-complex assay.
Series [17] can be described thus: Inhibition of Protein kinase-C alpha/gamma.
Series [18] in a line: Maximum plasma concentration after oral administration of 30 mg/kg in nude mice. It is filed as ADME, organism-based. Also on record: dose 30 mg/kg, route oral. To be noted: mouse.
Series [19] can be described thus: Inhibition of Protein kinase A.
Series [20] concerns the target Casein kinase I. As to the kind of experiment: Inhibition of human casein kinase-1. It counts as protein assay.
Series [21] concerns the target CaM kinase II (Homo sapiens, UniProt Q13557+Q13555+Q13554+Q9UQM7). As to the kind of experiment: Inhibition of [Ca(2+)]/calmodulin dependent kinase. It is filed as protein assay.
Series [22] deals with Mitogen-activated protein kinase; ERK1/ERK2 (Homo sapiens, UniProt P27361+P28482). As to the kind of experiment: Inhibition of Mitogen-activated protein kinase 1. It counts as protein assay.
Series [23] deals with Vascular endothelial growth factor receptor 2 (Homo sapiens, UniProt P35968). As to the kind of experiment: Inhibition of Vascular endothelial growth factor receptor 2.
Series [24] in a line: Maximum plasma concentration after intravenous administration of 3 mg/kg in nude mice. It counts as ADME, organism-based. To be noted: mouse. Details: dose 3 mg/kg, route intravenous.
Series [25] is described as follows: Bioavailability in mouse (nude) (dose 30 mg/kg p.o.). It is filed as ADME, organism-based. To be noted: in vivo, po.
Series [26] in a line: Half life after oral administration of 30 mg/kg. It counts as ADME, organism-based. Details: dose 30 mg/kg, route oral. The conditions noted are these: rat, in vivo.
Series [27] is described as follows: Half life after intravenous administration of 3 mg/kg. It is filed as ADME, organism-based. Details: dose 3 mg/kg, route intravenous. The conditions noted are these: rat, in vivo.
The nature of series [28]: Area under concentration time curve after 3 mg/kg […] in nude mice. It is filed as ADME, organism-based. Details: dose 3 mg/kg. To be noted: mouse, in vivo.
The nature of series [29]: Area under concentration time curve after 30 mg/kg of oral dose in nude mice. It is filed as ADME, organism-based. Also on record: dose 30 mg/kg, route oral. To be noted: mouse, in vivo.
The test system of series [30] is HeLa. As to the kind of experiment: In vitro inhibitory concentration against cell proliferation in s human HeLa (cervical adenocarcinoma),tumor cells. It is filed as functional, cell-based.
Series [31] is described as follows: Area under concentration time curve after 3 mg/kg […] in rat. It is filed as ADME, organism-based. Also on record: dose 3 mg/kg. The conditions noted are these: in vivo.
In series [32] the test system is Mus musculus. As to the kind of experiment: Mean day of survival after intraperitoneal administration of 75 mg/kg in mice. It is filed as functional.
Series [33] concerns Mus musculus. As to the kind of experiment: Mean day of survival after intraperitoneal administration of 100 mg/kg in mice. It counts as functional.
Series [34] is described as follows: Maximum plasma concentration after intravenous administration of 3 mg/kg in rat. It counts as ADME, organism-based. Details: dose 3 mg/kg, route intravenous.
Series [35] can be described thus: Bioavailability in rat after 30 mg/kg oral dose. It is filed as ADME, organism-based. To be noted: in vivo, read-out: Bioavailabiility.
Series [36] is described as follows: Maximum plasma concentration after oral administration of 10 mg/kg in dog. It is filed as ADME, organism-based, Canis lupus familiaris. Also on record: dose 10 mg/kg, route oral.
Series [37] in a line: Maximum plasma concentration after oral administration of 30 mg/kg in rat. Also on record: dose 30 mg/kg, route oral. It counts as ADME, organism-based.
Series [38] is described as follows: Half life after intravenous administration of 1 mg/kg. It counts as ADME, organism-based, Canis lupus familiaris. Also on record: dose 1 mg/kg, route intravenous. The conditions noted are these: dog, in vivo.
Series [39] in a line: Area under concentration time curve after 10 mg/kg of oral dose in dog. The conditions noted are these: in vivo. It counts as ADME, organism-based, Canis lupus familiaris. Details: dose 10 mg/kg, route oral.
Series [40] in a line: Area under concentration time curve after 30 mg/kg of oral dose in rat. It counts as ADME, organism-based. Also on record: dose 30 mg/kg, route oral. The conditions noted are these: in vivo.
The nature of series [41]: Area under concentration time curve after 1 mg/kg of intravenous dose in dog. It counts as ADME, organism-based, Canis lupus familiaris. Also on record: dose 1 mg/kg, route intravenous. The conditions noted are these: in vivo.
Series [42] is described as follows: Maximum plasma concentration after intravenous administration of 1 mg/kg in dog. It counts as ADME, organism-based, Canis lupus familiaris. Also on record: dose 1 mg/kg, route intravenous.
Series [43] in a line: Half life after oral administration of 10 mg/kg. Also on record: dose 10 mg/kg, route oral. It counts as ADME, organism-based, Canis lupus familiaris. The conditions noted are these: dog, in vivo.
Series [44] in a line: Bioavailability in dog after 10 mg/kg oral dose. It counts as ADME, organism-based, Canis lupus familiaris. To be noted: in vivo, read-out: Bioavailabiility.

pIC50: −log10 of the molar value. Values joined by “and” are separate entries in the source; they are usually repeats but may differ in a detail not shown here. Equal entries are not always repeated. Some results are limits rather than exact numbers.

Sequence of Fibroblast growth factor receptor 2 (P21802 whole entry): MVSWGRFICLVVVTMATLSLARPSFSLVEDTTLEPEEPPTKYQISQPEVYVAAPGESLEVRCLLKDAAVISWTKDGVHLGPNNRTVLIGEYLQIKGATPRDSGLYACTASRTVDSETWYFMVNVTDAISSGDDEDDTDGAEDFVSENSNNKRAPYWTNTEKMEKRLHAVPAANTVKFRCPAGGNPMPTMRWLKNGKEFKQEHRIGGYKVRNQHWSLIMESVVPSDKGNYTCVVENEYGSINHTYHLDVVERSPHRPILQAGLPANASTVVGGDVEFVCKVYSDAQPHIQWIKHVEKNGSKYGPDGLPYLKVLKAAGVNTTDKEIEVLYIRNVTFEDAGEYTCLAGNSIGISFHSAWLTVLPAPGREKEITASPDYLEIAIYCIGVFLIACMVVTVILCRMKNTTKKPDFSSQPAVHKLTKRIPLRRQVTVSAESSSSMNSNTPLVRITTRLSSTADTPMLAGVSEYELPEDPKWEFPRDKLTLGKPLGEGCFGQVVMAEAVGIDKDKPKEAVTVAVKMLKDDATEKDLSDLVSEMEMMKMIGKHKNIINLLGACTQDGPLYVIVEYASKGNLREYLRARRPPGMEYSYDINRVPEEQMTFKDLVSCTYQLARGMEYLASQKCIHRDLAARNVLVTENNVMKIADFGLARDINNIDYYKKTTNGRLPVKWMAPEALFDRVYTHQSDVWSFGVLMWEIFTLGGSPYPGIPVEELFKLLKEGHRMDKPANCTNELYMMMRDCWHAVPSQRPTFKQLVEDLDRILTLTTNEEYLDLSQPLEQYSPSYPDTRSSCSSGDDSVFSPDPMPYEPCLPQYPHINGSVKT
Sequence of Casein kinase II (P67870 whole entry): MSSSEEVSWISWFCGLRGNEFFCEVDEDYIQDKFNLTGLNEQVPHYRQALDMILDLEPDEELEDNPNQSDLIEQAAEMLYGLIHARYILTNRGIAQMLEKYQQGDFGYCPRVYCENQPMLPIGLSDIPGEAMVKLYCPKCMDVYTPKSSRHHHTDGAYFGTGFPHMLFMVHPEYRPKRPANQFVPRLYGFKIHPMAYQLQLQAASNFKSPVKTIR
Sequence of Casein kinase II (P68400 whole entry): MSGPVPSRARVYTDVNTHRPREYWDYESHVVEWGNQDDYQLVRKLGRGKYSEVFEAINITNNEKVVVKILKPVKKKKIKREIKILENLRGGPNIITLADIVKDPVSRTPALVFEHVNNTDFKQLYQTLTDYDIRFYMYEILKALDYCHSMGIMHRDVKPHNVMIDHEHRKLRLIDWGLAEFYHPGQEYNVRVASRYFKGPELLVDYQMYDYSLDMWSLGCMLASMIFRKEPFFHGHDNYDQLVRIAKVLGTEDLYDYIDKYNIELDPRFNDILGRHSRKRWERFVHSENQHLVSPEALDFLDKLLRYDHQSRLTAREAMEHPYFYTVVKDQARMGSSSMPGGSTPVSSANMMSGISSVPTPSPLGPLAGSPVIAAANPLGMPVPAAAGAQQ
Sequence of Casein kinase II (P19784 whole entry): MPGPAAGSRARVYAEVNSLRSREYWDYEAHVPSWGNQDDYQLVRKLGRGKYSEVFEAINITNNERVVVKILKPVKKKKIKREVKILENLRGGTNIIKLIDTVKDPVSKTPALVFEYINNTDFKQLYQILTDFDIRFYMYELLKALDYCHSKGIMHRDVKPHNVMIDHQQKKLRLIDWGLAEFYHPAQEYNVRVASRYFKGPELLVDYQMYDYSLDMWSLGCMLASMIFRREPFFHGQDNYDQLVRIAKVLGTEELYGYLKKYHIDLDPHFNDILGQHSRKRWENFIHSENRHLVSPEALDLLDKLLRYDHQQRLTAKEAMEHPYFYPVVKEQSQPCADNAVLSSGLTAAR
Sequence of Protein kinase C beta type (P05771 whole entry): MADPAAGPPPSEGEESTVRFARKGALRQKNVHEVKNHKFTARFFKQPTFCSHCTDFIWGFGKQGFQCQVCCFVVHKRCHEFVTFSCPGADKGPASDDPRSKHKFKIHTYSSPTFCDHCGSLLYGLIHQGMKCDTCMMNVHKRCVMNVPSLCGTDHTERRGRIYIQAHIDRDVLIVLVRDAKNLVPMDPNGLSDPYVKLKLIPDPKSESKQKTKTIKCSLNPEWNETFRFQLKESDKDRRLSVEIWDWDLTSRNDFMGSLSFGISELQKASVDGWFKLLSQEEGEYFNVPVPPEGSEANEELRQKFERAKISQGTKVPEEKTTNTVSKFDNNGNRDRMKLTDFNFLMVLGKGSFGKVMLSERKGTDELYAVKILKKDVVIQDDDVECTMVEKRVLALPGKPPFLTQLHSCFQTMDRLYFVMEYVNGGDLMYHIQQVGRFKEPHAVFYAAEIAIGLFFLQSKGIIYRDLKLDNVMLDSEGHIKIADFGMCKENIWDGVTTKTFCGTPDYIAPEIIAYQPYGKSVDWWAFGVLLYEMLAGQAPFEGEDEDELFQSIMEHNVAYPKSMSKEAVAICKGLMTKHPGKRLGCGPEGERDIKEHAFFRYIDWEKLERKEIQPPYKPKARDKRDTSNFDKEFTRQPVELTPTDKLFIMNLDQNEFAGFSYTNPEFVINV
Sequence of Cyclin-dependent kinase 4/cyclin D1 (P11802 whole entry): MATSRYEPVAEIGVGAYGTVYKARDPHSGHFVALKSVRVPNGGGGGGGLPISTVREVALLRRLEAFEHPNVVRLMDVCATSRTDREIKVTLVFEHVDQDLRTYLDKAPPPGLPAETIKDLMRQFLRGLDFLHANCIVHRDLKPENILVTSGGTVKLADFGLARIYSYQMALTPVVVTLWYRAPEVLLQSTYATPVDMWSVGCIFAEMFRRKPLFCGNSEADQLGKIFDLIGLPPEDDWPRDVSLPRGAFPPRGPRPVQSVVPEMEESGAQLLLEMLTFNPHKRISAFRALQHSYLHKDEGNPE
Sequence of Cyclin-dependent kinase 4/cyclin D1 (P24385 whole entry, further chain): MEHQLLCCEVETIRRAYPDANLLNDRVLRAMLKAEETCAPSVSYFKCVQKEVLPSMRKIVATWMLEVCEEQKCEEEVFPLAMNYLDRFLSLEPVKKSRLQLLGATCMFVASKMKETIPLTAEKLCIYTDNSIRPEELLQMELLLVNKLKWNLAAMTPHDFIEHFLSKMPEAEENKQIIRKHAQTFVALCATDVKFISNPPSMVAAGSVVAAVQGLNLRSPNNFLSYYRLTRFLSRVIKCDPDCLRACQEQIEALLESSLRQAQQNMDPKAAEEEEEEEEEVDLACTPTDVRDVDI
Sequence of Vascular endothelial growth factor receptor 2 (P35968 whole entry): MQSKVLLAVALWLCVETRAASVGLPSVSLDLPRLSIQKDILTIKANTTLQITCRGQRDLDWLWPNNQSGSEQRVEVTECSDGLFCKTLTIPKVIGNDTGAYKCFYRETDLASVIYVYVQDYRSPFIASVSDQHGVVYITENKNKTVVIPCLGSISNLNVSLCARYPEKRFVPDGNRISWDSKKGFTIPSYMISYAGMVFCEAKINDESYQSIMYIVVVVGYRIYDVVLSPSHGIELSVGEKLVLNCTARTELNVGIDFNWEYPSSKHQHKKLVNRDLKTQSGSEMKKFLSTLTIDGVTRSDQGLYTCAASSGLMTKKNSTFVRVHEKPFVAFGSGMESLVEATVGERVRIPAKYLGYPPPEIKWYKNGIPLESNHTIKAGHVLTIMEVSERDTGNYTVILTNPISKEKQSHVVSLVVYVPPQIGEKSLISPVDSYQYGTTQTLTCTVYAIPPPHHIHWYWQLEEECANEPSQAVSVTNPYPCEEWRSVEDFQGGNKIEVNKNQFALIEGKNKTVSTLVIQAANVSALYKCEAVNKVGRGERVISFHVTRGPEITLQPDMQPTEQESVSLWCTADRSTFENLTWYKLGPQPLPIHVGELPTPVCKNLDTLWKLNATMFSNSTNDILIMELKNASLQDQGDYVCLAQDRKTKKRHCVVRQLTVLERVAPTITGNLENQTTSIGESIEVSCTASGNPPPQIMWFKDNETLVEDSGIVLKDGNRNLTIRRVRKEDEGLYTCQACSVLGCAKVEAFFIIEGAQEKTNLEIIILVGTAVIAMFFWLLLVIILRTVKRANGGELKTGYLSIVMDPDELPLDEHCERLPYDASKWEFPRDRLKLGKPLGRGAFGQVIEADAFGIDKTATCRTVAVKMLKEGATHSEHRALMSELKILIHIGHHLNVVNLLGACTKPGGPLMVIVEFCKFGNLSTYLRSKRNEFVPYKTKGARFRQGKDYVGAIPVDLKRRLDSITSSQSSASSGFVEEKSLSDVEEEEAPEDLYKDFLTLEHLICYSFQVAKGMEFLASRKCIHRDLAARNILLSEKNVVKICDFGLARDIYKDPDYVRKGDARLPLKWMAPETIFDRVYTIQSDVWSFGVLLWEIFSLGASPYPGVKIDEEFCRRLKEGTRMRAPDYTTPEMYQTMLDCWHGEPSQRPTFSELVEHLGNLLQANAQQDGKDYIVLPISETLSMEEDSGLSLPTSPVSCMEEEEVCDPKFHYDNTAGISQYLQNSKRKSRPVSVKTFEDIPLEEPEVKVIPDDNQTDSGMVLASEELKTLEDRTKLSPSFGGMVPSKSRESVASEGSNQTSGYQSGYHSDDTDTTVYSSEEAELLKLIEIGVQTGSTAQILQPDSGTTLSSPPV

Usually pIC50 stands for −log10 of the IC50, conventionally taken in molar units. Higher therefore signals a small IC50. `Nc1nc(Nc2ccc(S(N)(=O)=O)cc2)nn1Cc1c(F)cccc1F` had a pIC50 in series [1] of under 4.00.
Consider `Cc1cc(C)c(C(=O)n2nc(Nc3ccc(S(N)(=O)=O)cc3)nc2N)s1`, for which the pIC50 in series [2] is 6.57; in [3], 6.77; in [4], 7.43; in [5] it was 7.14.
In series [1], `N[n+]1nc(Nc2ccc(S(N)(=O)=O)cc2)nn1S(=O)(=O)c1c(F)cccc1F` gave a pIC50 of 6.18.
Regarding `Cc1ccc(F)c(C(=O)n2nc(N)nc2Nc2ccc(S(N)(=O)=O)cc2)c1F`, the pIC50 was 5.68 in series [1], under 5.00 in series [6], 5.39 in series [2] and 4.55 in series [5].
As for `CN(C)CCNS(=O)(=O)c1ccc(Nc2nc(N)n(C(=O)c3c(F)cccc3F)n2)cc1`, the pIC50 in series [1] is 6.89; in [5], 6.85.
As for `Nc1nc(Nc2ccc(S(N)(=O)=O)cc2)nn1C(=O)c1cccs1`, the pIC50 in [6] is 5.59; in series [2] it was 5.72; in [4], 6.80; in series [5], 6.26; in series [7], 6.12; in series [8], 6.14.
On to `Nc1nc(Nc2ccc(S(N)(=O)=O)cc2)nn1C(=S)Nc1c(F)cccc1F`, for which the pIC50 in [9] is under 4.00; in series [10], 5.80; in series [6] it was 7.04; in series [2], 7.70; in series [5] it was 7.46.
`Nc1nc(Nc2ccc(S(N)(=O)=O)cc2)nn1C(=O)c1sccc1F`: the pIC50 in series [11] is 6.03; in series [2] it was 6.68; in series [4], 6.43; in [5], 6.59; in [8], 5.68.
The term IC50 denotes the concentration at which inhibition is half-maximal. Consider `Cc1ccsc1C(=O)n1nc(Nc2ccc(S(N)(=O)=O)cc2)nc1N`, for which the pIC50 in [9] is under 4.00; in [12] it was under 4.00; in series [14] it was 9.40; in series [15], 6.74; in series [16], 6.92; in series [10], 6.51. For the same compound, the pIC50 was 6.60 in series [6]; 6.89 in [2]; 6.96 in series [4]; 7.04 in series [5]; under 4.00 in series [17]. Also, the IC50 in series [13] was determined as 26 nM.
In general, Cmax refers to the highest concentration seen after dosing. What is called half-life is the time in which the quantity being followed falls by half. A lower half-life goes with rapid decline. Usually AUC stands for the area under the concentration-time curve, a measure of exposure. Regarding `Cc1ccc(F)c(C(=O)n2nc(Nc3ccc(S(N)(=O)=O)cc3)nc2C)c1F`, the Cmax in series [18] amounted to 430 nM; in [24], 330 nM. Besides, the pIC50 was under 4.00 in [19]; under 4.00 in [9]; under 4.00 in series [12]; 8.10 and 8.52 in series [1]; 9.52 in [14]; 6.57 in [15]. In addition, the pIC50 is 6.72 in series [16]; 4.97 in series [10]; 6.29 in [23]; 6.06 in series [2]; 6.80 in [4]; 6.43 in [5]. Besides, the figures for the negative-log IC50 (pIC50) in series [8] and in [17] were 6.66 and under 4.00, respectively. Besides, the IC50 in series [13] was 31 nM; in series [20] it was over 100000 nM; in series [21], over 100000 nM; in series [22], 9500 nM. In series [25], this compound came in with a bioavailability of 20.6%. The values for the half-life in series [26] and in [27] were 2.29 h and 1.94 h, respectively. The AUC was 0.27 µM·h in series [28] and 0.55 µM·h in series [29].
With `Nc1nc(Nc2ccc(S(N)(=O)=O)cc2)n(C(=S)c2c(F)cccc2F)n1`, the pIC50 was 6.01 in series [6], 6.04 in series [2] and 6.89 in series [5].
Turning to `Nc1nc(Nc2ccc(S(N)(=O)=O)cc2)nn1C(=O)Nc1c(F)cccc1F`, the figures for the pIC50 in series [6], in [2] and in [30] were 4.32, 5.33 and 5.43, respectively.
As to `Cc1nc(Nc2ccc(S(N)(=O)=O)cc2)nn1C(=O)c1c(F)ccc(F)c1F`, the values for the pIC50 in series [1], in series [5] and in series [8] were 8.49, 6.66 and 5.80, respectively.
In the case of `Nc1nc(Nc2ccc(S(N)(=O)=O)cc2)nn1C(=O)c1c(F)cccc1F` [JNJ-7706621], the AUC in series [31] stood at 11.4 µM·h; in [39], 15.5 µM·h; in series [40], 9.5 µM·h; in [28], 3.2 µM·h; in [41], 2.45 µM·h; in [29], 0.74 µM·h. Moreover, the Cmax in [18] came to 210 nM; in series [34] it was 23200 nM; in series [24], 6400 nM; in series [36], 4580 nM; in series [37], 2500 nM; in [42] it was 2190 nM. In addition, the values for the Mean day survival in series [32] and in series [33] were 48.5 days and 50.1 days, respectively. In addition, the pIC50 in series [19] is under 4.00; in series [12], under 4.00; in series [15], 6.66; in series [4], 6.92; in series [7] it was 6.23; in series [8], 6.12. For the same compound, the pIC50 in [17] is 4.52. The figures for the bioavailability in [35], in series [25] and in series [44] were 8%, 2% and 63.3%, respectively. In addition, the T1/2 was 2.2 h and 1.7 h in series [26]; 0.64 h in series [27]. Moreover, the half-life was 3.89 h in series [38], 0.51 h in series [27] and 2.36 h in series [43].
